Measurements as given in patent publication US4416885A, “Use of isopropylaminopyrimidine in the chemotherapy of muscular dystrophy, myopathy and myotonia” (priority 1982, dated 1983).

Columns and labels:
Type in all cases: in vivo, chicken
[1] = tested on: dystrophic New Hampshire chickens, line 413; assay: Flip test (flip number FN, out of five attempts)
Protocol: (§1) The compound IAPP was tested on dystrophic New Hampshire chickens, line 413, and Imperial College (London, England) sub-line of the original Davis, University of California strain. The chickens are homozygous for muscular dystrophy, the disease appearing with 100% incidence.
The animal is placed on its back in the supine position. The number of times it is able to rise, out of five attempts, is known as the flip number (FN). The normal chicken invariably scores 5 (out of 5 attempts), whereas in an untreated dystrophic chicken, the number declines to zero in 6-8 weeks. The test is performed once every […], seven days; more frequent assessment introduces an exercise factor and is not recommended.
The drug was administered daily in water, injected intra-peritoneally, the amount being adjusted on a weekly basis according to the animal's weight.
(§2) Finally, oral therapy with IAPP was undertaken at gradually increasing dosages up to 1 g/Kg/day. The parameters (physical, biochemical and histological) measured previously were again used to test the efficacy of the drug; five different dosages were used orally, each being given for 30-60 days, daily (Tables VII-XI). A total of 75 animals were treated in the current study with IAPP and 70 control animals were used.

[2] = tested on: dystrophic New Hampshire chickens, line 413; assay: Wing apposition (WA) measurements
Protocol: as §1
This can be defined as the minimum separation in cm to which the two wing tips can be passively raised, providing a measure of the characteristic loss is flexibility of the wing muscle-tendon system. The test is performed once weekly. In dystrophic birds, WA changes after the first three weeks of life from 0 cm (wings raised and touching) to about 18 cm at 3 months (wings stiff and can barely be raised). The normal controls maintain a score of 0 cm throughout. […]
as §2

[3] = tested on: pectoral muscle fibre of dystrophic chickens; assay: Histopathology of pectoral muscle; conditions: for % Fibre Splitting / % Phagocytosis / Hypertrophy Factor / Mean Endomysial Area / Nuclei/Fibre / Peripheral Nuclei (% of Total) / Range (endomysial area) / Variability Coefficient: 30 days
Text: Muscle fibre area increase greatly in the dystrophic chicken as does the range of fibre area sizes. Nuclei become displaced peripherally and both features can be measured quantitatively and compared with normal controls.
The main difference between 4-week (FIG. 1A) and 7-week old (FIG. 2A) normal muscle from pectoral biopsies, at the light microscopic level, is with regard to myofibre growth. There is an increase in fibre area and a redistribution of the position and number of muscle nuclei. The latter change from a random distribution in the fibre in the 4-week bird to a central location in the 7-week bird of about 80% of the nuclei. The fibres are closely packed, with very little connective tissue present and every fibre is clearly polygonal in shape.
In contrast, dystrophic pectoral muscle has very few fibres which appear normal at 4 weeks of age. They are nearly all rounded in shape (as opposed to polygonal) and many are hypertrophic. Longitudinal fibre splitting occurs and the muscle nuclei lie preferentially against the sarcolemma (FIG. 1B). There is a large increase in perimysial connective tissue. By 7 weeks, massive hypertrophy occurs (FIG. 2B). Fibre splitting leads to hyperplasia. […] Pyknotic nuclei appear, and the muscle nuclei are randomly scattered throughout the fibre. Connective tissue often appears very dense. Some fibres are starting to atrophy and fatty tissue replacement can sometimes be seen at this stage.

SMILES: CC(C)Nc1ncccn1.O=P(O)(O)O [IAPP, 2-isopropylaminopyrimidine orthophosphate]
- FN (out of 5 attempts), treated ([1]; 200 mg/Kg i.p. daily for 30 days, day 28 ex ovo, control 4.9): 5.0
- FN (out of 5 attempts), treated ([1]; 200 mg/Kg i.p. daily for 30 days, day 45 ex ovo, control 3.5): 3.3
- FN (out of 5 attempts), treated ([1]; 200 mg/Kg i.p. daily for 30 days, day 84 ex ovo, control 0.7): 1.4
- Mean flip number ([1]; 200 mg/Kg i.p., further 56 days after injections ceased): slightly improved
- FN (out of 5 attempts), treated ([1]; 300 mg/Kg i.p. daily for 30 days, day 28 ex ovo, control 4.9): 4.5
- FN (out of 5 attempts), treated ([1]; 300 mg/Kg i.p. daily for 30 days, day 45 ex ovo, control 3.5): 2.3
- FN (out of 5 attempts), treated ([1]; 300 mg/Kg i.p. daily for 30 days, day 84 ex ovo, control 0.7): 0.1
- FN (out of 5 attempts), treated ([1]; 300 mg/Kg i.p. three times weekly for 30 days, day 28 ex ovo, control 4.9): 4.5
- FN (out of 5 attempts), treated ([1]; 300 mg/Kg i.p. three times weekly for 30 days, day 45 ex ovo, control 3.5): 2.7
- FN (out of 5 attempts), treated ([1]; 300 mg/Kg i.p. three times weekly for 30 days, day 84 ex ovo, control 0.7): 0.6
- FN Treated (out of 5 attempts) ([1]; Exp. 2, 40 mg/Kg i.p. daily, day 7-13, control 4.5): 4.9
- FN Treated (out of 5 attempts) ([1]; Exp. 2, 40 mg/Kg i.p. daily, day 14-20, control 4.8): 5.0
- FN Treated (out of 5 attempts) ([1]; Exp. 2, 40 mg/Kg i.p. daily, day 35-41, control 2.8): 5.0
- FN Treated (out of 5 attempts) ([1]; Exp. 2, 40 mg/Kg i.p. daily, day 49-55, control 2.0): 4.5
- FN Treated (out of 5 attempts) ([1]; Exp. 2, 40 mg/Kg i.p. daily, day 56-62, control 1.4): 3.8
- FN Treated (out of 5 attempts) ([1]; Exp. 2, 40 mg/Kg i.p. daily, day 63-71, control 0.9): 2.3
- FN Treated (out of 5 attempts) ([1]; Exp. 3, 70 mg/Kg i.p. daily, day 14-20, control 5): 5
- FN Treated (out of 5 attempts) ([1]; Exp. 3, 70 mg/Kg i.p. daily, day 21-27, control 4.8): 5
- FN Treated (out of 5 attempts) ([1]; Exp. 3, 70 mg/Kg i.p. daily, day 28-34, control 5): 5
- FN (out of 5 attempts), treated ([1]; Table VII, oral 200 mg/Kg, 60 days, day 28 ex ovo, control 5.0): 4.1
- FN (out of 5 attempts), treated ([1]; Table VII, oral 200 mg/Kg, 60 days, day 35 ex ovo, control 4.4): 3.6
- FN (out of 5 attempts), treated ([1]; Table VII, oral 200 mg/Kg, 60 days, day 45 ex ovo, control 3.2): 2.4
- FN (out of 5 attempts), treated ([1]; Table VII, oral 200 mg/Kg, 60 days, day 60 ex ovo, control 2.8): 1.8
- FN (out of 5 attempts), treated ([1]; oral 300 mg/Kg daily, day 28 ex ovo, control 4.8): 4.7
- FN (out of 5 attempts), treated ([1]; oral 300 mg/Kg daily, day 35 ex ovo, control 4.7): 4.4
- FN (out of 5 attempts), treated ([1]; oral 450 mg/Kg daily for 45 days, day 28 ex ovo, control 5.0): 5.0
- FN (out of 5 attempts), treated ([1]; oral 450 mg/Kg daily for 45 days, day 35 ex ovo, control 3.6): 4.8
- FN (out of 5 attempts), treated ([1]; oral 450 mg/Kg daily for 45 days, day 45 ex ovo, control 1.7): 2
- FN (out of 5 attempts), treated ([1]; oral 450 mg/Kg daily for 45 days, day 50 ex ovo, control 1.4): 1
- FN (out of 5 attempts), treated ([1]; oral 600 mg/Kg daily, day 28 ex ovo, control 5.0): 5.0
- FN (out of 5 attempts), treated ([1]; oral 600 mg/Kg daily, day 35 ex ovo, control 3.6): 4.3
- FN (out of 5 attempts), treated ([1]; oral 600 mg/Kg daily, day 45 ex ovo, control 1.7): 2.7
- FN (out of 5 attempts), treated ([1]; oral 600 mg/Kg daily, day 50 ex ovo, control 1.4): 2.3
- FN (out of 5 attempts), treated ([1]; oral 1 g/Kg daily, day 28 ex ovo, control 1.7): 3.5
- Birds able to rise from supine 5 times out of 5 attempts ([1]; oral 1 g/Kg daily, first four weeks, dystrophic controls 20%): Fifty
- WA, treated ([2]; 200 mg/Kg i.p. daily for 30 days, day 28 ex ovo, control 0.4): 1.0 cm
- WA, treated ([2]; 200 mg/Kg i.p. daily for 30 days, day 45 ex ovo, control 0.6): 1.5 cm
- WA, treated ([2]; 200 mg/Kg i.p. daily for 30 days, day 84 ex ovo, control 8.3): 8.6 cm
- WA, treated ([2]; 300 mg/Kg i.p. daily for 30 days, day 28 ex ovo, control 0.4): 0.3 cm
- WA, treated ([2]; 300 mg/Kg i.p. daily for 30 days, day 45 ex ovo, control 0.6): 1.6 cm
- WA, treated ([2]; 300 mg/Kg i.p. daily for 30 days, day 84 ex ovo, control 9.3): 14.4 cm
- WA, treated ([2]; 300 mg/Kg i.p. three times weekly for 30 days, day 28 ex ovo, control 0.4): 0.3 cm
- WA, treated ([2]; 300 mg/Kg i.p. three times weekly for 30 days, day 45 ex ovo, control 0.6): 2.0 cm
- WA, treated ([2]; 300 mg/Kg i.p. three times weekly for 30 days, day 84 ex ovo, control 8.3): 11.1 cm
- WA, treated ([2]; Exp. 2, 40 mg/Kg i.p. daily, day 7-13, control 0): 0 cm
- WA, treated ([2]; Exp. 2, 40 mg/Kg i.p. daily, day 14-20, control 0): 0 cm
- WA, treated ([2]; Exp. 2, 40 mg/Kg i.p. daily, day 21-27, control 0): 0 cm
- WA, treated ([2]; Exp. 2, 40 mg/Kg i.p. daily, day 28-34, control 0): 0 cm
- WA, treated ([2]; Exp. 2, 40 mg/Kg i.p. daily, day 35-41, control 2.1): 0 cm
- WA, treated ([2]; Exp. 2, 40 mg/Kg i.p. daily, day 42-48, control 4.7): 2.3 cm
- WA, treated ([2]; Exp. 2, 40 mg/Kg i.p. daily, day 56-62, control 5.7): 2.9 cm
- WA, treated ([2]; Exp. 2, 40 mg/Kg i.p. daily, day 63-71, control 7.5): 6.1 cm
- WA, treated ([2]; Exp. 3, 70 mg/Kg i.p. daily, day 14-20, control 0): 0 cm
- WA, treated ([2]; Exp. 3, 70 mg/Kg i.p. daily, day 21-27, control 0): 0 cm
- WA, treated ([2]; Exp. 3, 70 mg/Kg i.p. daily, day 28-34, control 0): 0 cm
- WA, treated ([2]; Table VII, oral 200 mg/Kg, 60 days, day 28 ex ovo, control 0.8): 0.8 cm
- WA, treated ([2]; Table VII, oral 200 mg/Kg, 60 days, day 35 ex ovo, control 1.2): 2.5 cm
- WA, treated ([2]; Table VII, oral 200 mg/Kg, 60 days, day 45 ex ovo, control 3.4): 4.3 cm
- WA, treated ([2]; Table VII, oral 200 mg/Kg, 60 days, day 60 ex ovo, control 9.6): 10.7 cm
- WA, treated ([2]; oral 300 mg/Kg daily, day 28 ex ovo, control 1.6): 1.4 cm
- WA, treated ([2]; oral 300 mg/Kg daily, day 35 ex ovo, control 1.3): 4.5 cm
- WA, treated ([2]; oral 450 mg/Kg daily for 45 days, day 28 ex ovo, control 0.2): 0.7 cm
- WA, treated ([2]; oral 450 mg/Kg daily for 45 days, day 35 ex ovo, control 2.8): 1.9 cm
- WA, treated ([2]; oral 450 mg/Kg daily for 45 days, day 45 ex ovo, control 5.5): 5.8 cm
- WA, treated ([2]; oral 450 mg/Kg daily for 45 days, day 50 ex ovo, control 6.2): 7.6 cm
- WA, treated ([2]; oral 600 mg/Kg daily, day 28 ex ovo, control 0.2): 0.3 cm
- WA, treated ([2]; oral 600 mg/Kg daily, day 35 ex ovo, control 2.8): 1.1 cm
- WA, treated ([2]; oral 600 mg/Kg daily, day 45 ex ovo, control 5.5): 3.5 cm
- WA, treated ([2]; oral 600 mg/Kg daily, day 50 ex ovo, control 6.2): 5.5 cm
- % Fibre Splitting ([3]; 150 mg): 3.0%
- % Phagocytosis ([3]; 150 mg): 0.0%
- Hypertrophy Factor ([3]; 150 mg): 125
- Mean Endomysial Area ([3]; 150 mg): 1025 μm^2
- Nuclei/Fibre ([3]; 150 mg): 2.5
- Peripheral Nuclei (% of Total) ([3]; 150 mg): 46.1 % of Total
- Range (endomysial area) ([3]; 150 mg): 82-2001 μm^2
- Variability Coefficient ([3]; 150 mg): 416
- Fibres still polygonal ([3]; 150 mg/Kg daily, 7 week old biopsy): 50%
- % Fibre Splitting ([3]; 200 mg): 8.4%
- % Phagocytosis ([3]; 200 mg): 1.6%
- Hypertrophy Factor ([3]; 200 mg): 460
- Mean Endomysial Area ([3]; 200 mg): 763 μm^2
- Nuclei/Fibre ([3]; 200 mg): 2.5
- Peripheral Nuclei (% of Total) ([3]; 200 mg): 59.1 % of Total
- Range (endomysial area) ([3]; 200 mg): 54-2554 μm^2
- Variability Coefficient ([3]; 200 mg): 709
- % Fibre Splitting ([3]; 300 mg (3× wk.)): 3.0%
- % Phagocytosis ([3]; 300 mg (3× wk.)): 0.0%
- Hypertrophy Factor ([3]; 300 mg (3× wk.)): 10
- Mean Endomysial Area ([3]; 300 mg (3× wk.)): 449 μm^2
- Nuclei/Fibre ([3]; 300 mg (3× wk.)): 1.3
- Peripheral Nuclei (% of Total) ([3]; 300 mg (3× wk.)): 40.9 % of Total
- Range (endomysial area) ([3]; 300 mg (3× wk.)): 51-1060 μm^2
- Variability Coefficient ([3]; 300 mg (3× wk.)): 518
- % Fibre Splitting ([3]; 300 mg): 10.3%
- % Phagocytosis ([3]; 300 mg): 0.3%
- Hypertrophy Factor ([3]; 300 mg): 100
- Mean Endomysial Area ([3]; 300 mg): 552 μm^2
- Nuclei/Fibre ([3]; 300 mg): 1.7
- Peripheral Nuclei (% of Total) ([3]; 300 mg): 42.1 % of Total
- Range (endomysial area) ([3]; 300 mg): 24-1226 μm^2
- Variability Coefficient ([3]; 300 mg): 580
- Muscle appearance vs normal muscle ([3]; 300 mg/Kg 3 times/week at 30 days): indistinguishable from normal muscle
- Dosage at which histological parameters most closely approximate normal values ([3]; i.p.): 300 mg/Kg
- Muscle morphology ([3]; oral 1 g/Kg daily for 35 days): marked improvements in the muscle morphology
